Results from US8057829B2, “Methods for repelling insects using sesquiterpene hydrocarbons and their derivatives” (Sterling International Inc., priority 2008, dated 2011).

Assays:
[1] = tested on: female mosquito Culex pipiens antenna; assay: GC-EAD antennal response, Culex pipiens; settings: female Culex pipiens antennae; about 100 ng of each compound; responses weak, but repeatable; FIGS. 7 and 8
Protocol: The GC-EAD responses of the female mosquito Culex pipiens antenna were tested on a synthetic mixture of 1-octen-3-ol, and two sesquiterpene hydrocarbons, β-caryophyllene and isocaryophyllene, with about 100 ng of each compound in the mixture.
The GC-EAD responses of the female mosquito Culex pipiens antenna were tested on a synthetic mixture of 1-octen-3-ol, and representative sesquiterpene hydrocarbons and derivatives including (+)-longipinene, (−)-isolongifolene, (+)-longifolene, β-caryophyllene, and isolongifolenone, with about 100 ng of each compound in the mixture.
Antennal responses were weak, but repeatable, thus are considered to be true responses.
The following procedures were employed to test the EAD response of an insect antenna to a repellent compound. The GC-EAD technique provides an efficient tool for screening behaviorally active repellents. Several synthetic mixtures of potential insect repellent candidates, mostly sesquiterpene hydrocarbons and derivatives, were analyzed in splitless mode using a Varian CP-3800 GC equipped with a polar column (Innowax; 1.0 μm film thickness, 30 m×0.53 mm ID; J & W Scientific), and a 1:1 effluent splitter that allowed simultaneous flame ionization detection (FID) and EAD of the separated volatile compounds. Helium was used as the carrier gas, and the injector temperature was 220° C. The column temperature was 50° C. for 2 min, rising to 240° C. at 10° C./min, then held for 10 min. The outlet for the EAD was held in a humidified air stream flowing at 0.5 liter/min. over an antennal preparation. A glass capillary indifferent electrode filled with Beadle-Ephrussi Ringer, and grounded via a silver wire, was inserted into the severed insect's head with the antennae. A similar recording electrode connected to a high-impedance DC amplifier with automatic baseline drift compensation was placed in contact with the distal end of one antenna (Zhang et al., Chemoecology, 10:69-80 (2000)). The antennal signals were stored and analyzed on a PC equipped with a serial IDAC interface box and the program EAD ver. 2.5 (Syntech, Hilversum, The Netherlands). The compound 1-octen-3-ol (known attractant for many flies and mosquitoes) was included in most of the synthetic mixtures, as a positive control. The results of the experiments are shown in FIGS. 1-10 and described above.

[2] = tested on: female antennae of sand fly Phlebotomus papatasi and mosquitoes Aedes aegypti, Anopheles gambiae, Anopheles stephensi; assay: GC-EAD responses of sand fly and three mosquitoes to synthetic mixtures; settings: about 100 ng of each compound, on one or more of the sand fly or the mosquitoes, FIGS. 9 and 10
Procedure, shortened: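 Female antennae recorded by GC-EAD (split with FID) against synthetic mixtures with about 100 ng of each compound, 1-octen-3-ol as positive control; polar Innowax column, 50° C 2 min then 10° C/min to 240° C. Effluent in humidified air at 0.5 liter/min over severed-head preparation with Ringer-filled electrodes.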

[3] = tested on: houseflies; assay: Laboratory sticky trap bioassay of spatial repellency with egg powder attractant; format: in vivo, housefly (Musca domestica); settings: for female house flies per trap / male house flies per trap: egg powder plus repellent; for repellency against houseflies, in words: laboratory trap bioassay with egg powder attractant
Protocol: Laboratory bioassay tests were carried out to investigate the efficacy of some of the EAD-active compounds described above to act as spatial repellents against several insects. The procedure for the bioassay tests is described in Example 2 below. Briefly stated, the bioassay included using egg powder (EP) as an attractant for flies, while the compound whose insect repellency was being tested was placed in proximity to the egg powder. In FIGS. 11-13, the bioassay was carried out on houseflies using devices known by the designation Trécé Pherocon® VI sticky traps.
The following lab bioassay tests were employed to illustrate the efficacy of the compounds to effectively act as spatial repellents for flies. Three sets of tests were conducted in a fly testing room (23° C., 70% RH, and 12/12 (L/D) light regime illuminated by fluorescent lights). Two sets of tests were carried out using Trécé Pherocon® VI traps with sticky inserts, which were set up on poles evenly spaced on a rotating table. The traps were ca. 1 m above a table surface, and ca. 1 m apart from each other. Two grams of egg powder in a white cap (4 cm in diameter, 0.5 cm in height) used as an attractant was put on the center of the sticky insert in the sticky trap. The potential repellent candidate chemicals were loaded into polyethylene bags, and were hung under the inner roof of the traps, 1-1.5 cm above the egg powder attractant. A control had the empty white cap and blank polyethylene bag, while the positive control had only the egg powder and an empty polyethylene bag. The test table was rotated 1.5 r.p.h. […] About 200-300 houseflies (2-3 days old) were released into the testing room for each test. Tests were normally run from 8:00 am to 5:00 pm, and the numbers of houseflies caught in each trap were counted after each test. The results of these tests are shown in FIGS. 11-13 and described above.

[4] = tested on: Aedes aegypti; assay: Y-tube olfactometer behavioral bioassay (spatial repellency); format: in vivo; settings: for Number of mosquitoes in each arm: Blank / Number of mosquitoes in each arm: Bottom / Number of mosquitoes in each arm: Repellent: Aedes aegypti females, release rate per chemical (1-60 mg/day), 10 min; for Number of mosquitoes in each arm: Repellent: two replicates pooled; for SAI (Spatial Activity Index): Aedes aegypti, (Nc − Nt)/(Nc + Nt), −1 to 1, zero indicating no response
Procedure, shortened: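 Female insects (25-40 per run; mosquitoes 6-10 days old, sand flies 3-10 days) released into a CO2-baited Y-tube holding a treatment dispenser in one arm and a blank in the other; arm counts taken after 10 min at 23-25° C. Arms swapped in a repeat run; pooled data tested by χ2 (df=1).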

[5] = FIG. 13, egg powder alone 76 females
[6] = FIG. 13, egg powder alone 95 males
[7] = FIG. 12, egg powder alone 35 females
[8] = FIG. 12, egg powder alone 68 males

Row | Structure (SMILES) | GC-EAD antennal activity [1] | GC-EAD antennal activity [2] | female house flies per trap [3, 5] [house flies per trap] | male house flies per trap [3, 6] | repellency against houseflies, in words [3] | Number of mosquitoes in each arm: Blank [4] | Number of mosquitoes in each arm: Bottom [4] | Number of mosquitoes in each arm: Repellent [4] | SAI (Spatial Activity Index) [4] | number of house flies per trap ([3]; egg powder attractant plus repellent, FIG. 11, egg powder alone 44) [house flies per trap] | female house flies per trap [3, 7] [house flies per trap] | male house flies per trap [3, 8]
1 | C=C1C2CCC3[C@H]2C(C)(C)CCC[C@]13C (single isomer, unassigned; (+)) [(+)-Longifolene] | active | antennally active | 4 | one | strongest repellent against houseflies | 20 | 37 | 5 | 0.60 | – | – | –
2 | C=C1CC/C=C(\C)CC[C@@H]2[C@@H]1CC2(C)C [β-Caryophyllene, β-caryophyllene] | active | antennally active | 10 | two | effective housefly repellents | 20 | 40 | 6 | 0.54 | 3.5 | 12 | six
3 | C=C1CC/C=C(/C)CC[C@@H]2[C@@H]1CC2(C)C [Isocaryophyllene, isocaryophyllene] | active | antennally active | – | – | – | 35 | 31 | 8 | 0.63 | – | 15 | 14 house flies per trap
